Legend:
[1] = molecular target: EGFR-NTEV-tevS-GV + ERBB3-CTEV (Homo sapiens, UniProt P00533+P21860); test: ERBB dimerization split TEV assay EGFR/ERBB3; type: cell-based; settings: 10 ng/ml EGFld
Excerpt: Gateway recombination cloning (Life Technologies) was applied for generating plasmids. Each ORF cloned was PCR‐amplified using the Pwo proofreading DNA polymerase (Roche) and BP‐recombined into the pDONR/Zeo plasmid (Life Technologies) to yield an entry vector, which was control‐digested using BsrGI to release the insert, and sequence‐verified. The following human ORFs were cloned using cDNA image clones ordered from Source BioScience: ERBB4 transcript variant JM‐a/CYT‐1 (Accession: BC112199), PIK3R1 (BC094795), GRB2 transcript variant 1 (BC000631), SHC1 transcript variant 2 (BC014158), STAT5A (BC027036), and SRC transcription variant 1 (BC051270). For EGFR, ERBB2, and ERBB3, entry vectors were obtained from the human CCSB kinase collection available from Addgene (Johannessen et al, 2010). Entry vectors were LR‐recombined into split TEV destination vectors [either pcDNA_attR1‐ORF‐attR2‐NTEV‐tevS‐GV‐2xHA_DEST or pTag4C_attR1‐ORF‐attR2‐CTEV‐2xHA_DEST, plasmids were described in detail before (Wehr et al, 2006)] to yield expression vectors, which were control‐digested using BsrGI. The plasmids for Nrg1 type I β1a and rat Nrg1 type III β1a have been described before (Wehr et al, 2006).

ERBB4 = ERBB4 (Homo sapiens, UniProt Q15303); test: Western blot of ERBB4 phosphorylation in T-47D cells; settings: 10 ng/ml EGFld, 10 μM compound, 5 min
Chain of ERBB4 (Q15303 26-1308): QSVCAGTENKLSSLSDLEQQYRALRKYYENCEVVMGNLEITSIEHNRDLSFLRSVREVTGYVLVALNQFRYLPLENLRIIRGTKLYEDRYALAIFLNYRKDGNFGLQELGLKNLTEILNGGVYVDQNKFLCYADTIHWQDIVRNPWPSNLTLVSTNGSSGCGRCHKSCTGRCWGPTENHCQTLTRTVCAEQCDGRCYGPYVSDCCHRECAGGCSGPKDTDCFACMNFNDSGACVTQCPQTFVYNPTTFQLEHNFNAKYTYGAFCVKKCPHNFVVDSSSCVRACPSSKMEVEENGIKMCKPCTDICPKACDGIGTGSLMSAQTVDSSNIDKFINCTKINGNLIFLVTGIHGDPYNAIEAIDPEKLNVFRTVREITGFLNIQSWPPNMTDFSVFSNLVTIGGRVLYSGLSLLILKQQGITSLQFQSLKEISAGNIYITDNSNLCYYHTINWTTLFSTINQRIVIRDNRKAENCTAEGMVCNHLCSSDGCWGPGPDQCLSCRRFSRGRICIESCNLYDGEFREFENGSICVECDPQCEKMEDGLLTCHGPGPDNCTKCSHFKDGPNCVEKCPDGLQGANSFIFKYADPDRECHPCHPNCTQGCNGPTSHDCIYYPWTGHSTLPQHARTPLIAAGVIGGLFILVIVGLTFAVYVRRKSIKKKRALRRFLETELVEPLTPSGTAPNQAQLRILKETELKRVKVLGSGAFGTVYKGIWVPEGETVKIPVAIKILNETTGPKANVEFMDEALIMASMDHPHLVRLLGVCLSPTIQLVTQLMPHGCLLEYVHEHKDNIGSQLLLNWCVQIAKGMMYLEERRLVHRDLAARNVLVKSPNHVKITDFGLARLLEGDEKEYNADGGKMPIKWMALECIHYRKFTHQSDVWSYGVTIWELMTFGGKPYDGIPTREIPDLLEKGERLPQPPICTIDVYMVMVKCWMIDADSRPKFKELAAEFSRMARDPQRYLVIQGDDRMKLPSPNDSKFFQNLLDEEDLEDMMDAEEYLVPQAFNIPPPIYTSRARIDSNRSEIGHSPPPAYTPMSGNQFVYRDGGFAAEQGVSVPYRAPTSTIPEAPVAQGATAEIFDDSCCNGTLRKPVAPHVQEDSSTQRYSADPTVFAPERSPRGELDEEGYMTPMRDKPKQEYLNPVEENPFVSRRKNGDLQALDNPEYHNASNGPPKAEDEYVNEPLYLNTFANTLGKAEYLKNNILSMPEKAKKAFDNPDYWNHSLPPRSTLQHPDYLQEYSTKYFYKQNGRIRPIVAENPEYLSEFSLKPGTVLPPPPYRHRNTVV

NRG1-ERBB4 signaling = test: Nrg1-ERBB4-PIK3R1 split TEV co-culture compound screen of the NIH Clinical Collection; type: cell-based, human; settings: compounds at 10 μM, 24 h; PC12 split TEV assay cells co-cultured with Nrg1-expressing PC12 cells; analysed with cellHTS2
ERBB4_1-685 dimers = molecular target: T1, ERBB4_1-685 dimers (Homo sapiens, UniProt Q15303); test: Truncated ERBB4 (amino acids 1-685) dimerization split TEV assay; settings: PC12 cells, 10 ng/ml EGFld
T1 sequence (Q15303 26-685) 1: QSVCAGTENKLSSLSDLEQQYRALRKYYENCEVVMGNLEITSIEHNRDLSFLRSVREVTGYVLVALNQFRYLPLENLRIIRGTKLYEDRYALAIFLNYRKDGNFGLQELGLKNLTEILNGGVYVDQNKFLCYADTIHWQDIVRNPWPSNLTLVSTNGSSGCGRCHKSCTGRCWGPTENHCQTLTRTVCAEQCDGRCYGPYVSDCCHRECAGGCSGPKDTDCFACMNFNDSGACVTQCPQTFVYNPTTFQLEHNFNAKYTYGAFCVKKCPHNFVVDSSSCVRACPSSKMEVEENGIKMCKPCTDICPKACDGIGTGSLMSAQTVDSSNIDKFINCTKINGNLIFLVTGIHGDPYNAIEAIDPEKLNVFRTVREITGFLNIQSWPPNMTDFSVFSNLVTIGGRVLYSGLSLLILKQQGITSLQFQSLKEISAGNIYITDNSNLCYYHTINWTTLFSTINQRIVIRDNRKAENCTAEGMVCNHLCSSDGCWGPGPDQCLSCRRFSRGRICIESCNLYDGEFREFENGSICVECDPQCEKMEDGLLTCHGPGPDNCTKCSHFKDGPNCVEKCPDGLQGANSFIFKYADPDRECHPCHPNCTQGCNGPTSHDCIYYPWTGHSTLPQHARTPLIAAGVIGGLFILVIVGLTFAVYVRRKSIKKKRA
T1 sequence (Q15303 26-685) 2: T1 sequence (Q15303 26-685) 1
Description: Individually re‐screened candidates were validated using a dose–response assay. PC12 cells were batch‐transfected as described in the section “Transfection of cells”, manually plated, and incubated for 24 h at 37°C and 5% CO2. Candidate small molecules were prepared in a series of dilutions using DMSO as diluent and ranging from 0.0001 to 100 μM at final concentrations, thus covering at least five orders of magnitude. Candidate dilutions were added, followed by the addition of 10,000 Nrg1‐expressing cells in 100 μl volume 30 min later. Cells were lysed in 40 μl Passive Lysis Buffer and analyzed in a Dual Luciferase Assay. Data were analyzed in Excel and GraphPad Prism. For single‐culture assays that used EGFld as stimulus, 100 μl assay medium containing EGFld (f.c. 10 ng/ml) was administered. […] Dose–response assays were run in six replicates per concentration and repeated at least two times. Data are shown as mean, and error bars represent SEM.

Chain of EGFR-NTEV-tevS-GV + ERBB3-CTEV (P00533 25-1210): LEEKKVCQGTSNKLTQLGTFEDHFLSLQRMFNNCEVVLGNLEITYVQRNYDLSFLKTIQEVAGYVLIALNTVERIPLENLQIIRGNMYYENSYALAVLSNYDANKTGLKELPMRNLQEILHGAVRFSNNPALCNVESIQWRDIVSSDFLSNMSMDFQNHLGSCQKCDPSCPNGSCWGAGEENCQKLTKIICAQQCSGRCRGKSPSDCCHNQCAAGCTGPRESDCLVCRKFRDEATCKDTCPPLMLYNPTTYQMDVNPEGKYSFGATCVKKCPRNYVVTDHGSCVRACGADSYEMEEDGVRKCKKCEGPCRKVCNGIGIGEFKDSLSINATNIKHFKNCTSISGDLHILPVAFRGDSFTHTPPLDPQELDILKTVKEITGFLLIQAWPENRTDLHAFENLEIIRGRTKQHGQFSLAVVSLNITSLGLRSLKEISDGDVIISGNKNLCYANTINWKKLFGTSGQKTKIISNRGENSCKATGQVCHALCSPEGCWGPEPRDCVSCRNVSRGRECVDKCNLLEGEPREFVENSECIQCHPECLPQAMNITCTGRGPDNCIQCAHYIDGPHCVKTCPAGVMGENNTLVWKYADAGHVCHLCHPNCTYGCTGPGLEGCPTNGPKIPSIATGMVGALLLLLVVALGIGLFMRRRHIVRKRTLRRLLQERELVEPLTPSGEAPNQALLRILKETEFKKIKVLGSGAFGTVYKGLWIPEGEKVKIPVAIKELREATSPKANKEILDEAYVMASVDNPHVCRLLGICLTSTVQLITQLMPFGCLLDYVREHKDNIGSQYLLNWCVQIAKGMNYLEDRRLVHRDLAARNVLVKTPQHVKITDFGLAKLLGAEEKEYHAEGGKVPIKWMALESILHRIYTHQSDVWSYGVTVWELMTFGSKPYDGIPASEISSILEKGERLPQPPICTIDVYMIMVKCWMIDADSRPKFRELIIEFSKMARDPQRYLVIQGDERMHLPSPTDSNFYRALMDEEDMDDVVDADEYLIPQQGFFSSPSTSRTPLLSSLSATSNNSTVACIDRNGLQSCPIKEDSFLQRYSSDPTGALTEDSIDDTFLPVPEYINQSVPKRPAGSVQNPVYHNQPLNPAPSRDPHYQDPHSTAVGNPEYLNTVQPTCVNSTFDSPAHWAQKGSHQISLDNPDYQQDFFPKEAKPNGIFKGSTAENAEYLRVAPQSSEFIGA
Chain of EGFR-NTEV-tevS-GV + ERBB3-CTEV (P21860 20-1342): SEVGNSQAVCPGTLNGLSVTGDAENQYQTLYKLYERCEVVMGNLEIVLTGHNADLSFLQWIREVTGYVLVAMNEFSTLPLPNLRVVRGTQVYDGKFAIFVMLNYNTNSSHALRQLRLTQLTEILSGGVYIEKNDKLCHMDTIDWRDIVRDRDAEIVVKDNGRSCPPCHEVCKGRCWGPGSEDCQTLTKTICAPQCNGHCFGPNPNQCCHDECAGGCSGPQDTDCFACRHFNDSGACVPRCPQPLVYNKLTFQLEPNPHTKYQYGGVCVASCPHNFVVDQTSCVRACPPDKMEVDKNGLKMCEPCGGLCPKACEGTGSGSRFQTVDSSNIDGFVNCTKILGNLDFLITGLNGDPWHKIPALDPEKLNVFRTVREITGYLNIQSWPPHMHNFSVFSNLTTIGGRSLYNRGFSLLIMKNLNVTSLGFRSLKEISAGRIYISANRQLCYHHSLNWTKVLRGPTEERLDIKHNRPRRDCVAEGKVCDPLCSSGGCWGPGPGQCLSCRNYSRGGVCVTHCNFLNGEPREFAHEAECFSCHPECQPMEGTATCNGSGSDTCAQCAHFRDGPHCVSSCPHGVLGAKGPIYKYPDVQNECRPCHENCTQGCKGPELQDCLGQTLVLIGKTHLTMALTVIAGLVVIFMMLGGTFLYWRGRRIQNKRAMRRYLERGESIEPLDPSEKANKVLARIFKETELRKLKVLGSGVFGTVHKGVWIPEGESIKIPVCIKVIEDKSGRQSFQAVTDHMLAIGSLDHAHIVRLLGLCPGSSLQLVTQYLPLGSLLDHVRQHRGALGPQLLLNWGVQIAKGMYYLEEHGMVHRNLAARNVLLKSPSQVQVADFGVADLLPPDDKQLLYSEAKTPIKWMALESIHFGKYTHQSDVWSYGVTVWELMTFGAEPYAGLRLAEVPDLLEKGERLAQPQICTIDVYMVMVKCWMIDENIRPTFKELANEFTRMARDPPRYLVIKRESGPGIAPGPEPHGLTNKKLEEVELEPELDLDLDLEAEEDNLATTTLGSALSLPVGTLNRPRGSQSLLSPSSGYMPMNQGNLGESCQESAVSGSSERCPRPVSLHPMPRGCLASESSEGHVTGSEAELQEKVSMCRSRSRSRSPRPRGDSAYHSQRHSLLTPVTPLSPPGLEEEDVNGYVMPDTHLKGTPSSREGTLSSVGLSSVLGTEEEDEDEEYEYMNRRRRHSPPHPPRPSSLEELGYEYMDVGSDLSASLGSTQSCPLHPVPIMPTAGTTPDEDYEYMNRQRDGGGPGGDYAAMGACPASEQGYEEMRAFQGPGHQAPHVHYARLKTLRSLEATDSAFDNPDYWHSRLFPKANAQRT

## CC(=O)S[C@@H]1CC2=CC(=O)CC[C@]2(C)[C@H]2CC[C@@]3(C)[C@@H](CC[C@@]34CCC(=O)O4)[C@H]12 [Spironolactone]
[1]
  IC50: 2810 nM
ERBB4
  ERBB4 phosphorylation at Tyr1056 and Tyr1284: reduced phosphorylation to intermediate levels
NRG1-ERBB4 signaling
  Z-SCORE: 9.25
ERBB4_1-685 dimers
  inhibitory effect on dimerization of truncated ERBB4: no inhibitory effect

From PMC5653977 (EMBO Molecular Medicine, 2017)
